In this assay the target is T1, STAT6 (Homo sapiens, UniProt P42226).
T1 construct: These cells express endogenous STAT6; host or cells: HeLa LgBiT clone 4.14 (CRISPR knock-in of HiBiT into the endogenous STAT6 gene)
T1 sequence (P42226 1-847): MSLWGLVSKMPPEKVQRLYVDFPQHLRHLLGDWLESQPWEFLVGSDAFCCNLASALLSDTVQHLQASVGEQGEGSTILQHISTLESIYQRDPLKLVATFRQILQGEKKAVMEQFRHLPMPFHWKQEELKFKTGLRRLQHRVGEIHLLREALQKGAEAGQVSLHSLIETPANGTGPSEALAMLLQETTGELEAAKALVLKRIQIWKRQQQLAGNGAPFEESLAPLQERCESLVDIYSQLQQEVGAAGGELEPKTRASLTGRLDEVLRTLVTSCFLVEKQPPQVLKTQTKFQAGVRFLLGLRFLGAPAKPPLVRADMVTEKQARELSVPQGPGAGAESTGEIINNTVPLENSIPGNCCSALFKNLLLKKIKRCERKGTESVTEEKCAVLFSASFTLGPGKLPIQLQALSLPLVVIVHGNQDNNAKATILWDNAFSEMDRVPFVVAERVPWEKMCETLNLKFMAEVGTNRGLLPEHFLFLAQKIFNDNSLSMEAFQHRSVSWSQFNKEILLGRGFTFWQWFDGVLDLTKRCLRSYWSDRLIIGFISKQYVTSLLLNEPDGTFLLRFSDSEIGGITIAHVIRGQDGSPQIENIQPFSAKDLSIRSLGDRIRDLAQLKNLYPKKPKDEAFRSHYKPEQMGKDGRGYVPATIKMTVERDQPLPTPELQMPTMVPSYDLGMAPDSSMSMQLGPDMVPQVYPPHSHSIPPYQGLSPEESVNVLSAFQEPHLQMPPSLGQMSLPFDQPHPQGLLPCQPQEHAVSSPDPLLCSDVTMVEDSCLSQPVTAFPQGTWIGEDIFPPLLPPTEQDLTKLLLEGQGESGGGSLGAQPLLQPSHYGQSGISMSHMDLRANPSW
The assay can be described thus: STAT6 Degrader Assay (HiBiT based, HeLa LgBiT clone 4.14 cells). Format: cell-based. The note with it: for DC50: geometric mean across assay runs and compound batches, DC50 provided for test compounds with >80% Emax, read-out: STAT6 degradation DC50; for Emax: HeLa, maximal STAT6 degradation. Here is the method:
This was a HiBit based assay. A HeLa cell line stably transfected with a small protein, LgBit (Large Bit) was obtained from Promega. These cells express endogenous STAT6. A small 11 amino acid gene sequence (HiBiT) was inserted in the STAT6 gene using CRISPR technology. Once STAT6 protein is expressed in the cells, the HiBiT sequence will bind the LgBit in the cells resulting in a functional NanoBiT protein, giving a luminescent tag to STAT6. Single cell clones were prepared and the clone 4.14 was selected for the assay based on that clone showing high luminescence, high STAT6 phosphorylation upon stimulation with IL-4, and inhibition of luminescence when cells were treated with STAT6 siRNA. HeLa LgBiT clone 4.14 cells were suspended in DMEM with 10% FCS, 1% Pen/Strep, Na-pyrovate and Hygromycin B, at a concentration of 1.25*105 cells pr mL. 5000 cells were added pr well of a 384 well plate and 20 nL of compound was added by Echo® liquid handler. NN6394A (terfenadine, a toxic compound) was added to control wells at 50 μM concentration to establish the assay window. In these wells the cells are dead which equals 100% degradation of STAT6. After 4-24 h of incubation at 37° C. under 5% CO2/95% air, 5 μL substrate (Nano-GLO®) was added to the wells and the plates were centrifuged and incubated for 0.5 h. The luminescence in the wells as a measure of non-degraded STAT6 was measured in a plate reader (BMG Pherastar FSX). The measured DC50 (in nM) was determined.

Results on 19 molecules are retold here after patent US20250320205A1, “STAT6 DEGRADERS” (Gilead Sciences, Inc., priority 2024, published 2025).

By DC50 is commonly meant the midpoint of the concentration-degradation curve. What is called Emax is the greatest response seen or fitted, relative to the assay's reference.

`CNc1ccn(-c2ccnc3c2cc([C@H](C)N2CCC(c4c(C)cc(C(=O)N5CCC(CN6CCN(c7ccc(N[C@H]8CCC(=O)NC8=O)cc7F)CC6)CC5)cc4F)CC2)n3C)c(=O)c1` (single isomer, unassigned) [Example 2g45]: the DC50 was 10.7 nM. Regarding `CNc1ccn(-c2ccnc3c2cc(CN2CCC(c4c(C)cc(C(=O)N5CCC(CN6CCN(c7ccc(N[C@H]8CCC(=O)NC8=O)cc7F)CC6)CC5)cc4F)CC2)n3C)c(=O)c1` (single isomer, unassigned) [Example 2g62], the DC50 amounted to 18 nM. As for `Cc1cc(C(=O)N(C)c2ccc(C3CCN(c4ccc(NC5CCC(=O)NC5=O)cc4F)CC3)cc2)cc(F)c1C1=CCN([C@H](C)c2cc3c(-n4ccc5[nH]ncc5c4=O)ccnc3n2C)CC1` (stereo partly drawn) [Example 2g133, N-(4-(1-(4-((2,6-dioxopiperi-din-3-yl)amino)-2-fluoro-phenyl)piperidin-4-yl)phen-yl)-3-fluoro-N,5-dimethyl-4-(1-((R)-1-(1-methyl-4-(4-oxo-1,4-dihydro-5H-pyrazolo[4,3-c]pyridin-5-yl)-1H-pyrrolo [2,3-b]pyridin-2-yl)ethyl)-1,2,3,6-tetrahydropyridin-4-yl)benzamide], the Emax lay within 60 to 70%. As to `CNc1ccn(-c2ccnc3c2cc([C@H](C)N2CC=C(c4c(C)cc(C(=O)N5CCC(CN6CCN(c7ccc(N[C@@H]8CCC(=O)NC8=O)cc7F)C[C@H]6C)CC5)cc4F)CC2)n3C)c(=O)c1` (single isomer, unassigned) [Example 2g47], the DC50 was determined as 3.3 nM. For `CNc1ccn(-c2ccnc3c2cc(CN2CCC(c4c(C)cc(C(=O)N5CCN(C(=O)CN6CCN(c7ccc(NC8CCC(=O)NC8=O)cc7F)CC6)CC5)cc4F)CC2)n3C)c(=O)c1` (stereo not shown) [Example 2g132, 3-((3-fluoro-4-(4-(2-(4-(3-fluoro-5-methyl-4-(1-((1-methyl-4-(4-(methylamino)-2-oxopyridin-1(2H)-yl)-1H-pyrrolo[2,3-b]pyridin-2-yl)-methyl)piperidin-4-yl)benzo-yl)piperazin-1-yl)-2-oxo-ethyl)piperazin-1-yl)phenyl)-amino)piperidine-2,6-dione], the Emax lay in the range of 40 to 50%. With `Cc1cc(C(=O)N2CCC(CN3CCN(c4ccc(N[C@H]5CCC(=O)NC5=O)cc4F)CC3)CC2)cc(F)c1C1=CCN([C@@H](C)c2cc3c(-n4ccc5c(c4=O)CCN5)ccnc3n2C)CC1` (single isomer, unassigned) [Example 2g19], the DC50 turned out to be 4.5 nM. With `CNc1ccn(-c2ccnc3c2cc([C@H](C)N2CC=C(c4c(C)cc(C(=O)N5CCC(CN6CCN(c7ncc(N[C@@H]8CCC(=O)NC8=O)cc7F)C[C@@H]6C)CC5)cc4F)CC2)n3C)c(=O)c1` (single isomer, unassigned) [Example 2g96], the DC50 came to 14 nM. The same measure, in the same setting: the same measure for `Cc1cc(C(=O)N2CCC(CN3CCN(c4ccc(N[C@@H]5CCC(=O)NC5=O)cc4F)C[C@H]3C)CC2)cc(F)c1C1=CCN([C@@H](C)c2cc3c(-n4ccc5c(c4=O)CCN5)ccnc3n2C)CC1` (single isomer, unassigned) [Example 2g24]: 3 nM; for `CNc1ccn(-c2ccnc3c2cc([C@H](C)N2CC=C(c4c(C)cc(C(=O)N5CCC(CN6CCN(c7ccc(N[C@@H]8CCC(=O)NC8=O)cc7F)C[C@@H]6C)CC5)cc4F)CC2)n3C)c(=O)c1` (single isomer, unassigned) [Example 2g99]: 22.2 nM; for `CNc1ccn(-c2ccnc3c2cc([C@H](C)N2CC=C(c4c(C)cc(C(=O)N5CCC(CN6CCN(c7ncc(N[C@H]8CCC(=O)NC8=O)cc7F)C[C@@H]6C)CC5)cc4F)CC2)n3C)c(=O)c1` (single isomer, unassigned) [Example 2g95]: 11 nM. Still for that read-out and setting: the same measure for `CNc1ccn(-c2ccnc3c2cc([C@H](C)N2CC=C(c4c(C)cc(C(=O)N5CCC(CN6CCN(c7ccc(N[C@H]8CCC(=O)NC8=O)cc7F)CC6)CC5)cc4F)CC2)n3C)c(=O)c1` (single isomer, unassigned) [Example 2g39]: 5 nM; for `CNc1cc(=O)n(-c2ccnc3c2cc(CN2CCC(c4c(F)cc(C(=O)N5CCC(CN6CCN(c7ccc(N[C@H]8CCC(=O)NC8=O)cc7F)CC6)CC5)cc4F)CC2)n3C)cc1F` (single isomer, unassigned) [Example 2g34]: 15.1 nM; for `CNc1cc(=O)n(-c2ccnc3c2cc([C@H](C)N2CC=C(c4c(C)cc(C(=O)N5CCC(CN6CCN(c7ccc(N[C@@H]8CCC(=O)NC8=O)cc7F)C[C@H]6C)CC5)cc4F)CC2)n3C)cc1F` (single isomer, unassigned) [Example 2g28]: 10.3 nM. Still for that read-out and setting: the same measure for `CNc1ccn(-c2ccnc3c2cc([C@H](C)N2CC=C(c4c(C)cc(C(=O)N5CCC(CN6CCN(c7ccc(N[C@@H]8CCC(=O)NC8=O)cc7F)CC6)CC5)cc4F)CC2)n3C)c(=O)c1` (single isomer, unassigned) [Example 2g38]: 2.4 nM.

In turn, `Cc1cc(C(=O)N(C)c2ccc(C3CCN(c4ccc(NC5CCC(=O)NC5=O)cc4F)CC3)cc2)cc(F)c1C1=CCN([C@H](C)c2cc3c(-n4ccc5[nH]ccc5c4=O)ccnc3n2C)CC1` (stereo partly drawn) [Example 2g134, N-(4-(1-(4-((2,6-dioxopiper-idin-3-yl)amino)-2-fluoro-phenyl)piperidin-4-yl)phen-yl)-3-fluoro-N,5-dimethyl-4-(1-((R)-1-(1-methyl-4-(4-oxo-1,4-dihydro-5H-pyrrolo[3,2-c]pyridin-5-yl)-1H-pyrrolo [2,3-b]pyridin-2-yl)ethyl)-1,2,3,6-tetrahydropyridin-4-yl)benzamide] yielded an Emax of 50 to 60%.

For the molecule `CNc1ccn(-c2ccnc3c2cc([C@H](C)N2CC=C(c4c(C)cc(C(=O)N5CCn6nc(CN7CCC(c8ccc(N[C@@H]9CCC(=O)NC9=O)cc8F)CC7)cc6C5)cc4F)CC2)n3C)c(=O)c1` (single isomer, unassigned) [Example 2g17], the DC50 came out at 0.2 nM.

`Cc1cc(C(=O)N2CCC(CN3CCN(c4ncc(NC5CCC(=O)NC5=O)cc4F)CC3)CC2)cc(F)c1C1=CCN([C@@H](C)c2cc3c(-n4ccc5c(c4=O)CCN5)ccnc3n2C)CC1` (stereo partly drawn) [Example 2g49, 3-((5-fluoro-6-(4-((1-(3-fluoro-5-methyl-4-(1-((S)-1-(1-methyl-4-(4-oxo-1,2,3,4-tetrahydro-5H-pyrrolo[3,2-c]pyridin-5-yl)-1H-pyrrolo [2,3-b]pyridin-2-yl)ethyl)-1,2,3,6-tetrahydropyridin-4-yl)benzoyl)piperidin-4-yl)-methyl)piperazin-1-yl)-pyridin-3-yl)amino)piperi-dine-2,6-dione]: the Emax is below 20%.

As to `COc1cc(N2CCN(CC3CCN(C(=O)c4cc(C)c(C5=CCN([C@@H](C)c6cc7c(-n8cc(F)c9c(c8=O)CCN9)ccnc7n6C)CC5)c(F)c4)CC3)CC2)ccc1NC1CCC(=O)NC1=O` (stereo partly drawn) [Example 2g130, 3-((4-(4-((1-(3-fluoro-4-(1-((S)-1-(4-(7-fluoro-4-oxo-1,2,3,4-tetrahydro-5H-pyr-rolo-[3,2-c]pyridin-5-yl)-1-methyl-1H-pyrrolo[2,3-b]pyridin-2-yl)ethyl)-1,2,3,6-tetrahydropyridin-4-yl)-5-methylbenzoyl)piperidin-4-yl)methyl)piperazin-1-yl)-2-methoxyphenyl)amino)piper-idine-2,6-dione], the Emax was in the range of 30 to 40%. Take `CNc1ccn(-c2ccnc3c2cc([C@H](C)N2CC=C(c4c(C)cc(C(=O)N5CCC(CN6CCN(c7ccc(NC8CCC(=O)NC8=O)cc7F)CC6)CC5)cc4F)CC2)n3C)c(=O)c1` (stereo partly drawn) [Example 2g37, 3-((3-fluoro-4-(4-((1-(3-fluoro-5-methyl-4-(1-((S)-1-(1-methyl-4-(4-(methyl-amino)-2-oxopyridin-1(2H)-yl)-1H-pyrrolo[2,3-b]pyridin-2-yl)ethyl)-1,2,3,6-tetrahydro-pyridin-4-yl)benzoyl)piperi-din-4-yl)methyl)piperazin-1-yl)phenyl)amino)piperidine-2,6-dione]: the DC50 is 1.8 nM.
